Test results: PMC8233208 (The Journal of Biological Chemistry, 2021)

Tested on: ZIKV (MR766)
Assay: ZIKV total RNA replication by qRT-PCR in infected A549 cells
Assay type: cell-based, ZIKV African-lineage MR766 strain
Conditions: 10 μM, RNA replication and NS5 assays

## destruxin A [Compound 12]
  antiviral (anti-ZIKV) activity, comparison among tested compounds: more potent activities
